Laboratory results as given in patent US5652363A, “Pyrido-1,4-oxazinylalkyl-benzamide derivatives” (C.D. Searle & Co., priority 1996, dated 1997).

Target: T1, PAF receptor (Homo sapiens, UniProt P25105)
T1 construct: tissue Lifesource, Inc. (Glenview, Ill.); host or cells: human platelets (membrane preparation)
Assay: Human Platelet Receptor Binding Assay ([3H]PAF binding to human platelet membrane preparation)
Conditions: inhibition of specific binding of 0.75 nM [3H]PAF to human platelet membranes, 30 minutes at 24° C.; read-out: PAF Inhibitor Activity Human Platelet Receptor Assay
Procedure: Human Platelet Receptor Binding Assay
Compounds of the invention were evaluated for their ability to inhibit specific binding of [^3 H]PAF to human platelet membrane preparation. Human packed platelets were obtained from Lifesource, Inc. (Glenview, Ill.) and washed 3 times with 10 mM Trizma pH 7.0, 2 mM EDTA (dipotassium salt), 150 mM KCl and then once with 10 mM Trizma 7.4, 20 mM CaCl2. The platelets were broken by freezing in a dry ice-ethanol bath, followed by thawing in 24° C. water baths. The preparation was centrifuged (40,000×g, 20 minutes, 4° C.) and the pellet suspended in 10 mM Trizma 7.4, 20 mM CaCl2, 5 mg/ml human albumin. Protein concentration in the platelet membrane preparation was determined by the Lowry method [O. H. Lowry et al., J. Biol. Chem., 193, 265-275 (1951)]. Aliquots of the membrane preparation were stored at -70° C. Each preparation was characterized for PAF receptor number and dissociation constant (Kd). In binding assays 5 μl of test compound, solubilized in DMSO, was added to polypropylene tubes along with 0.75 nM [^3 H]PAF and 200 mcl [0.075 nM] of membranes and 95 μl 10 mM Trizma 7.4, 20 mM CaCl2, 5 mg/ml human albumin-Tubes were incubated for 30 minutes at 24° C. The incubation was terminated by adding 4 ml of ice-cold 10 mM Trizma pH 7.4, 20 mM CaCl2 and 20 mg/ml BSA prior to vacuum filtration using Whatman GF/C filters. Filters were prepared and counted in a scintillation counter. All DPM values (disintergrations per minute) were corrected for background and isotope decay. Triplicate determinations for single doses were averaged. The amount of non-specific binding was subtracted from all dose averages, giving an amount of specific binding in all cases. The IC50 values for the compounds of the invention were determined by the Allfit program using percent displacement data. (Allfit is a `basic` computer program for simultaneous curve fitting of a family of signoidal dose-response curves using the four parameter logistic equation.) Results are shown in Table I. In Table 1 "c-pent" means cyclopentyl; "c-hex" means cyclohexyl; "i-Pr" means isopropyl; "Me" means methyl; and "OMe" means methoxy.

T1 sequence (P25105 whole entry): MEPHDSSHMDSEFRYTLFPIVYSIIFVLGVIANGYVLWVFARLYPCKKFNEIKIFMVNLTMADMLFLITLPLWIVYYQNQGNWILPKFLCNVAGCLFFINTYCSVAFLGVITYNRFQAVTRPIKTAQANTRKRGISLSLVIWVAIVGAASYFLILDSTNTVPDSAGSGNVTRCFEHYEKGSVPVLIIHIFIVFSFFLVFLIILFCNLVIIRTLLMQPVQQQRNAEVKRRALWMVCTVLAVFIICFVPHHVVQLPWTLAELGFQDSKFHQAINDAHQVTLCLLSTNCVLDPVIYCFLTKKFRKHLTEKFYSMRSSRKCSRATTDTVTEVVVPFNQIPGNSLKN

Row | IC50 | SMILES
1 | 0.219 µM | Cc1cc(C(=O)N(C2CCCCC2)C2CCCC2)ccc1CN1CCOc2cnccc21 [Example 10, N-cyclohexyl-N-cyclopentyl-4-[(2,3-dihydro-1H-pyrido[3,4-b][1,4]oxazin-1-yl)methyl]-3-methyl-benzamide]
2 | 0.002 µM | CC(C)N(C(=O)c1ccc(CN2CCOc3cnccc32)c(Br)c1)C1CCCCC1 [Example 11, 3-bromo-N-cyclohexyl-4-[(2,3-dihydro-1H-pyrido[3,4-b]-[1,4]oxazin-1-yl)methyl]-N-(1-methylethyl)benzamide]
3 | 0.505 µM | COc1cc(C(=O)N(C(C)C)C2CCCCC2)ccc1CN1C(=O)COc2ncccc21 [Example 17, N-cyclohexyl-4-[{2,3-dihydro-2-oxo-1H-pyrido(2,3-b)(1,4)oxazin-1-yl}methyl]-3-methoxy-N-(1-methylethyl)benzamide]
4 | 0.163 µM | COc1cc(CN2CCOc3cnccc32)ccc1C(=O)N(C1CCCC1)[C@@H]1C[C@H](C)C[C@H](C)C1 [Example 9]
